One compound from US7452865B2, “Antagonistic analogs of GH RH (2003)” (The Administrare's of the Tulane Educational Fund, priority 2004, dated 2008) can be followed below.

In experiment [1] the test system is hGH-RH(1-29)NH2 induced GH release. The experiment can be described thus: Inhibition of GH release in superfused rat pituitary system. The format is cell-based. A digest of the protocol:
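Dispersed rat pituitary cells in superfusion were preincubated 9 min with analog at various concentrations, then stimulated with 1 nM hGH-RH(1-29)NH2 for 3 min, repeated at 30, 60, 90, 120 min to gauge duration. GH measured by double-antibody RIA; net integrated responses expressed as percent of the initial 1 nM GH-RH response.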

Experiment [2] has as its system GH-RH receptor isoforms on membrane fractions of human PC-3 prostate tumors. The format is binding. Conditions: general statement. In short, it runs like this: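 Competitive displacement of [^125I]JV-1-42 from crude membranes of human PC-3 prostate tumours grown as nude-mouse xenografts, with unlabelled peptides at 10^−12 to 10^−6 M. Bound radioactivity in the centrifuged pellet gamma-counted; Ki from Munson–Rodbard analysis. Relative affinity = Ki of reference peptide (JV-1-36 or JV-1-38) / Ki of test antagonist.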

In experiment [3] the test system is PC-3 human prostate cancer xenografts. The experiment can be described thus: PC-3 xenografts in nude mice, Experiment 1: tumor growth. Format: in vivo. In short, it runs like this: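 Male nude mice carried s.c. PC-3 hormone-independent prostate tumour fragments on both flanks. Once tumours reached about 50 mm^3, groups of 7–8 mice received vehicle or peptide at 10 μg/day s.c. once daily for 28 days. Tumour volume was measured twice weekly, with tumour weight and serum IGF-I (RIA) taken at day 29; data are means ±S.E., two-tailed t-test.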

The test system of experiment [4] is IGF-I. Description: PC-3 xenografts, Experiment 1: serum IGF-I (RIA). Format: in vivo, nude mice. Conditions: 10 μg/day s.c., 28 days. In short, it runs like this: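 Male nude mice bearing s.c. PC-3 prostate tumors (~50 mm^3) given single daily s.c. injections, 10 μg/day, for 28 days, sacrificed day 29. IGFs acid-ethanol extracted from serum or tumor cytosol, then measured by RIA against IGF-I or recombinant human IGF-II standards.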

For experiment [5], the system named is IGF-II. The experiment can be described thus: PC-3 xenografts, Experiment 1: tumor IGF-II (RIA). Format: in vivo, nude mice. Conditions: 10 μg/day s.c., 28 days. The text has this:
For the measurement of GH and IGF-I levels in the serum, as well as IGF-I and IGF-II concentrations in the cytosol fraction of tumors, blood samples and tumor samples were collected and processed as described (Braczkowski R, Schally A V, Plonowski A, Varga J L, Groot K, Krupa M, Armatis P, Cancer 95: 1735-1745, 2002), hereby incorporated by reference. Briefly, blood samples are centrifuged to separate the serum, tumors are homogenized and centrifuged to separate the cytosol fraction. Serum GH is then measured by the double-antibody RIA method. Before measurement by RIA, IGF-I and IGF-II are extracted from serum and cytosol fractions using an acid-ethanol cryoprecipitation method that eliminates most of the IGF binding proteins, which can interfere with the RIA. IGF-I concentration is measured by RIA using IGF-I as a standard and goat anti-IGF-I antibody (both from DSL Inc., Webster, Tex.). IGF-II concentration is measured by RIA using human recombinant IGF-II (Bachem) as a standard and anti-IGF-II monoclonal antibody (Amano International Enzyme, Troy, Va.).
Male nude mice were implanted s.c. with 3 mm^3 pieces of PC-3 human hormone-independent prostate cancer tissue on both flanks. When tumors reached a volume of approx. 50 mm^3, the mice were divided into 5 experimental groups with 7 to 8 animals in each group and received single daily injections for 28 days as follows: 1. Control (vehicle solution); 2. JV-1-38 (10 μg/day s.c.); 3 Peptide 31 (10 μg/day s.c.); 4. Peptide 67 (10 μg/day s.c.); 5. Peptide 62 (10 μg/day s.c.). Tumor volumes were measured twice a week. The experiment was ended on day 29 by sacrificing the mice under Isoflurane anesthesia. Resulting tumors were cleaned, weighed, and snap-frozen until further analyses. Trunk blood was collected from the abdominal aorta and serum was separated for RIA measurement of IGF-I. Statistical analyses of the measurement results were done by two-tailed t-test; data are presented as the means±S.E.

Experiment [6] has as its system mRNA for IGF-II. Description: DMS-153 human SCLC xenografts: expression of mRNA for IGF-II. The format is in vivo, nude mice. Conditions: 10 μg/day s.c., 6 weeks, control group 100±1.5%. As to the method: Male nude mice were implanted s.c. with 3 mm^3 pieces of DMS-153 human SCLC tissue. When tumors reached a volume of approx. 100 mm^3 the mice were divided into 3 experimental groups of 68 animals each and received the following treatment for 6 weeks group 1 (control), vehicle solution; group 2, Peptide 67 (10 μg/day s.c.); group 3, Peptide 31 (10 μg/day s.c.). Tumor volumes were recorded twice a week. At the end of treatment, mice were anesthetized with isoflurane, killed by decapitation, trunk blood was collected for measurement of serum IGF-I, and tumors were excised and weighed. Data are presented as means±S.E. Data were evaluated by one way ANOVA and the Student-Newman-Keuls test.
A general note: A xenograft is tissue or cells of one species grown in another, often human tumour cells in immunodeficient mice.

Setting [7] is: 10 μg/day s.c., 28 days, vs control.

Marks after values point to notes of the source that are not given here. Square brackets hold non-standard residues; d marks the D form. Peptide text beside a SMILES is read from it. * marks the point of attachment. Phe(4-amidino) = N=C(N)c1ccc(C[C@H](N)C(=O)O)cc1; Phe(4-Cl) = N[C@@H](Cc1ccc(Cl)cc1)C(=O)O; hArg = N=C(N)NCCCC[C@H](N)C(=O)O; Nle = CCCC[C@H](N)C(=O)O; Abu = CC[C@H](N)C(=O)O; PhAc = O=C(Cc1ccccc1)*

Consider `CCCC[C@H](NC(=O)[C@@H](NC(=O)[C@H](CC(=O)O)NC(=O)[C@H](CCC(N)=O)NC(=O)[C@H](CC(C)C)NC(=O)[C@H](CC(C)C)NC(=O)[C@H](CCCCN)NC(=O)[C@H](CCCNC(=N)N)NC(=O)[C@H](C)NC(=O)[C@H](CO)NC(=O)[C@H](CC(C)C)NC(=O)[C@H](CCC(N)=O)NC(=O)[C@H](CC)NC(=O)[C@H](CC(C)C)NC(=O)[C@@H](NC(=O)[C@H](CCCCN)NC(=O)[C@H](CCCNC(=N)N)NC(=O)[C@H](Cc1ccc(OC)cc1)NC(=O)[C@H](Cc1ccc(C(=N)N)cc1)NC(=O)[C@H](CC(N)=O)NC(=O)[C@@H](NC(=O)[C@H](Cc1ccc(Cl)cc1)NC(=O)[C@@H](NC(=O)[C@H](C)NC(=O)[C@H](CC(=O)O)NC(=O)[C@@H](CCCNC(=N)N)NC(=O)[C@H](Cc1ccc(O)cc1)NC(=O)Cc1ccccc1)[C@@H](C)CC)[C@@H](C)O)C(C)C)[C@@H](C)CC)C(=O)N[C@H](CCCNC(=N)N)C(=O)N[C@@H](CCCCNC(=N)N)C(N)=O` [Peptide 67, [PhAc-Tyr^1, D-Arg^2, Phe(pCl)^6, Amp^9, Tyr(Me)^10, Abu^15, Nle^27, D-Arg^28, Har^29]hGH-RH(1-29)NH2] (PhAc-Y[dR]DAI[Phe(4-Cl)]TN[Phe(4-amidino)]Y(Me)RKVL[Abu]QLSARKLLQDI[Nle][dR][hArg]-NH2), for which, in experiment [1] (antagonist 30 nM, 1 nM hGH-RH(1-29)NH2 at 0 min), the “GH response (% of control) 0 min” value is recorded as 28 % of control. Further, in experiment [1] (antagonist 30 nM, 1 nM hGH-RH(1-29)NH2 at 30 min), the “GH response (% of control) 30 min” value was 15 % of control. Moreover, the “GH response (% of control) 60 min” value in experiment [1] (antagonist 30 nM, 1 nM hGH-RH(1-29)NH2 at 60 min) was 18 % of control. For the same compound, the “GH response (% of control) 90 min” value in experiment [1] (antagonist 30 nM, 1 nM hGH-RH(1-29)NH2 at 90 min) is 20 % of control. In addition, the “GH response (% of control) 120 min” value in experiment [1] (antagonist 30 nM, 1 nM hGH-RH(1-29)NH2 at 120 min) is given as 23 % of control. Besides, the “endocrine antagonistic potency: inhibition of the GH release stimulated by hGH-RH(1-29)NH2 (in words)” value in experiment [1] (general statement, in vitro and in vivo) is “high endocrine antagonistic potencies”. Also, in experiment [2], the “binding affinities to the tumoral receptors for GH-RH (in words)” value is on record as “extremely high binding affinities”. In experiment [3] (10 μg/day s.c., 28 days), the “Tumor volume (mm^3) Final” value is on record as 200 ± 39.5* mm^3, the “Tumor volume doubling time” value is on record as 17.0 ± 3.51 days and the “Tumor weight” value was 150 ± 22.1 mg. Also, in experiment [3] (setting [7]), the “Tumor volume Final (% inhibition)” value is “(60%)” and the “Tumor weight (% inhibition)” value is reported as “(60%)”. Besides, the “inhibitory effect on the growth of PC-3 tumors (in words)” value in experiment [3] (10 μg/day s.c., compared with JV-1-38) is given as “stronger inhibitory effect on the growth of PC-3 tumors than the reference peptide JV-1-38”. Besides, in experiment [3] (at start of treatment), the “Tumor volume (mm^3) Initial” value amounted to 46.8 ± 8.11 mm^3. In experiment [4], the “Serum IGF-I” value is on record as 128 ± 10.6 ng/mL. Further, in experiment [4] (vs control), the “Serum IGF-I (% inhibition)” value was “(14%)”. For the same compound, in experiment [5], the “Tumor IGF-II (pg/mg protein)” value is listed as 139 ± 69.2 pg/mg protein. In addition, the “Tumor IGF-II (% inhibition)” value in experiment [5] (vs control) is on record as “(37%)”. Further, in experiment [6], the “level of expression of mRNA for IGF-II” value came out at 78.0±44.3%.
